Reference: US10519152B2, “Compounds and their use in treating cancer” (AstraZeneca AB, priority 2017, dated 2019)

Target: T1, Estrogen Receptor (ERα) in MCF-7 human ductal carcinoma breast cell line (Homo sapiens, UniProt P03372)
T1 construct: endogenous in cells; host or cells: MCF-7
T1 sequence (P03372 1-595): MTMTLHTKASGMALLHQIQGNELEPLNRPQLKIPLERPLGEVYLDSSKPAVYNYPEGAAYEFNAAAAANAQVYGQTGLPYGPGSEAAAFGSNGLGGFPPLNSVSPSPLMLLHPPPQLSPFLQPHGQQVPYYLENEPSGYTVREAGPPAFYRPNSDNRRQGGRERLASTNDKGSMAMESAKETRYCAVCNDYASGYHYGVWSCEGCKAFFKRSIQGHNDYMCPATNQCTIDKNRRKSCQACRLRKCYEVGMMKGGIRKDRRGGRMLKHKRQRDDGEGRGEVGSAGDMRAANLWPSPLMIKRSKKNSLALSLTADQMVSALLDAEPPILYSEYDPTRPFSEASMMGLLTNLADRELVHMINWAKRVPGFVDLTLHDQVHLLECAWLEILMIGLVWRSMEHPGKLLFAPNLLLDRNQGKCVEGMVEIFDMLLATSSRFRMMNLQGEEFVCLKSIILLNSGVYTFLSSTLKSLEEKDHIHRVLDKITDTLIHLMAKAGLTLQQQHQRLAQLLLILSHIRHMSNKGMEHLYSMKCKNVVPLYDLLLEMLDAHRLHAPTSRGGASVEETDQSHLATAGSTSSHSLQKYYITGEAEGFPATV
Assay: MCF-7 ER degradation assay (cell based immuno-fluorescence)
Settings: MCF-7 cells; for ER degradation ≥ 90% at 0.3 μM: ER degradation by fulvestrant at 0.3 μM is defined as 100%; for DC50: 18-22 hours incubation, 50% reduction of ERα expression, single experiment or average of two or more, read-out: MCF-7 ER degradation IC50
How it was run: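 MCF-7 human ductal carcinoma breast cells were seeded at 3.75×10^4 cells per mL (40 μL per well) in 384 well plates with phenol red free DMEM containing 2 mM L-Glutamine and 5% (v/v) Charcoal/Dextran treated foetal calf serum. After overnight culture, compounds were acoustically dispensed, incubated 18-22 hours, then cells were formaldehyde-fixed and immunostained for ERα.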

SMILES	ER degradation ≥ 90% at 0.3 μM	DC50 [nM]
Cc1ncsc1-c1ccc(CNC(=O)C2CC(O)CN2C(=O)C(NC(=O)COCCOc2cc(F)c(C3c4[nH]c5ccccc5c4CC(C)N3CC(C)(C)F)c(F)c2)C(C)(C)C)cc1 [Example 40, (2S,4R)-1-((S)-2-(2-(2-(3,5-Difluoro-4-((1R,3R)-2-(2-fluoro-2-methylpropyl)-3-methyl-2,3,49-tetrahydro-1H-pyrido[3,4-b]indol-1-yl)phenoxy)ethoxy)acetamido)-3,3-dimethylbutanoyl)-4-hydroxy-N-(4-(4-methylthiazol-5-yl)benzyl)pyrrolidine-2-carboxamide]	•	0.6
Cc1ncsc1-c1ccc(CNC(=O)[C@@H]2C[C@@H](O)CN2C(=O)[C@@H](NC(=O)COCCCCCN(CCOc2cc(F)c([C@@H]3c4[nH]c5ccccc5c4C[C@@H](C)N3CC(C)(C)F)c(F)c2)C(=O)OCc2ccccc2)C(C)(C)C)cc1 [Example 45, Benzyl (2-(3,5-difluoro-4-((1R,3R)-2-(2-fluoro-2-methylpropyl)-3-methyl-2,3,4,9-tetrahydro-1H-pyrido[3,4-b]indol-1-yl)phenoxy)ethyl)(5-(2-(((S)-1-((2S,4R)-4-hydroxy-2-((4-(4-methylthiazol-5-yl)benzyl)carbamoyl)pyrrolidin-1-yl)-3,3-dimethyl-1-oxobutan-2-yl)amino)-2-oxoethoxy)pentyl)carbamate]	••	12
Cc1ncsc1-c1ccc(CNC(=O)[C@@H]2C[C@@H](O)CN2C(=O)[C@@H](NC(=O)COCCCC2CN(CCOc3cc(F)c([C@@H]4c5[nH]c6ccccc6c5C[C@@H](C)N4CC(C)(C)F)c(F)c3)C2)C(C)(C)C)cc1 [Example 47, (2S,4R)-1-((S)-2-(2-(3-(1-(2-(3,5-difluoro-4-((1R,3R)-2-(2-fluoro-2-methylpropyl)-3-methyl-2,3,4,9-tetrahydro-1H-pyrido[3,4-b]indol-1-yl)phenoxy)ethyl)azetidin-3-yl)propoxy)acetamido)-3,3-dimethylbutanoyl)-4-hydroxy-N-(4-(4-methylthiazol-5-yl)benzyl)pyrrolidine-2-carboxamide]	•	0.6
Cc1ncsc1-c1ccc(CNC(=O)[C@@H]2C[C@@H](O)CN2C(=O)[C@@H](NC(=O)COCCCCCNCCOc2cc(F)c([C@@H]3c4[nH]c5ccccc5c4C[C@@H](C)N3CC(C)(C)F)c(F)c2)C(C)(C)C)cc1 [Example 48, (2S,4R)-1-((S)-2-(2-((5-((2-(3,5-difluoro-4-((1R,3R)-2-(2-fluoro-2-methylpropyl)-3-methyl-2,3,4,9-tetrahydro-1H-pyrido[3,4-b]indol-1-yl)phenoxy)ethyl)amino)pentyl)oxy)acetamido)-3,3-dimethylbutanoyl)-4-hydroxy-N-(4-(4-methylthiazol-5-yl)benzyl)pyrrolidine-2-carboxamide]	•	1.8
Cc1ncsc1-c1ccc(CNC(=O)[C@@H]2C[C@@H](O)CN2C(=O)[C@@H](NC(=O)COCCCCCN(C)CCOc2cc(F)c([C@@H]3c4[nH]c5ccccc5c4C[C@@H](C)N3CC(C)(C)F)c(F)c2)C(C)(C)C)cc1 [Example 49, (2S,4R)-1-((S)-2-(2-((5-((2-(3,5-difluoro-4-((1R,3R)-2-(2-fluoro-2-methylpropyl)-3-methyl-2,3,4,9-tetrahydro-1H-pyrido[3,4-b]indol-1-yl)phenoxy)ethyl)(methyl)amino)pentyl)oxy)acetamido)-3,3-dimethylbutanoyl)-4-hydroxy-N-(4-(4-methylthiazol-5-yl)benzyl)pyrrolidine-2-carboxamide]	•	0.9
Cc1ncsc1-c1ccc(CNC(=O)[C@@H]2C[C@@H](O)CN2C(=O)[C@@H](NC(=O)COCCCCCCOc2cc(F)c([C@@H]3c4[nH]c5ccccc5c4C[C@@H](C)N3CC(C)(C)F)c(F)c2)C(C)(C)C)cc1 [Example 51, (2S,4R)-1-((S)-2-(2-((6-(3,5-difluoro-4-((1R,3R)-2-(2-fluoro-2-methylpropyl)-3-methyl-2,3,4,9-tetrahydro-1H-pyrido[3,4-b]indol-1-yl)phenoxy)hexyl)oxy)acetamido)-3,3-dimethylbutanoyl)-4-hydroxy-N-(4-(4-methylthiazol-5-yl)benzyl)pyrrolidine-2-carboxamide]	•	6.8
Cc1ncsc1-c1ccc(CNC(=O)[C@@H]2C[C@@H](O)CN2C(=O)[C@@H](NC(=O)COCCc2ccc(COc3cc(F)c([C@@H]4c5[nH]c6ccccc6c5C[C@@H](C)N4CC(C)(C)F)c(F)c3)cc2)C(C)(C)C)cc1 [Example 53, (2S,4R)-1-((S)-2-(2-(4-((3,5-difluoro-4-((1R,3R)-2-(2-fluoro-2-methylpropyl)-3-methyl-2,3,4,9-tetrahydro-1H-pyrido[3,4-b]indol-1-yl)phenoxy)methyl)phenethoxy)acetamido)-3,3-dimethylbutanoyl)-4-hydroxy-N-(4-(4-methylthiazol-5-yl)benzyl)pyrrolidine-2-carboxamide]	•	3.5
Cc1ncsc1-c1ccc(CNC(=O)[C@@H]2C[C@@H](O)CN2C(=O)[C@@H](NC(=O)COCCOCCOCCOCCOCCOCC(=O)Nc2ccc([C@@H]3c4[nH]c5ccccc5c4C[C@@H](C)N3CC(C)(C)F)cc2)C(C)(C)C)cc1 [Example 54, N^1-(4-((1R,3R)-2-(2-fluoro-2-methylpropyl)-3-methyl-2,3,4,9-tetrahydro-1H-pyrido[3,4-b]indol-1-yl)phenyl)-N^18—((S)-1-((2S,4R)-4-hydroxy-2-(4-(4-methylthiazol-5-yl)benzylcarbamoyl)pyrrolidin-1-yl)-3,3-dimethyl-1-oxobutan-2-yl)-2,5,8,11,14,17-hexaoxaoctadecane-1,18-dicarboxamide, Trifluoroacetic Acid]	••	1.7
Cc1ncsc1-c1ccc(CNC(=O)[C@@H]2C[C@@H](O)CN2C(=O)[C@@H](NC(=O)COCCOCCOCCOc2cc(F)c([C@@H]3c4[nH]c5ccccc5c4C[C@@H](C)N3C[C@H](C)CO)c(F)c2)C(C)(C)C)cc1 [Example 101, (2S,4R)-1-((S)-2-(tert-butyl)-14-(3,5-difluoro-4-((1R,3R)-2-((S)-3-hydroxy-2-methylpropyl)-3-methyl-2,3,4,9-tetrahydro-1H-pyrido[3,4-b]indol-1-yl)phenoxy)-4-oxo-6,9,12-trioxa-3-azatetradecanoyl)-4-hydroxy-N-(4-(4-methylthiazol-5-yl)benzyl)pyrrolidine-2-carboxamide]	•	1.8
Cc1ncsc1-c1ccc([C@@H](CN)NC(=O)[C@@H]2C[C@@H](O)CN2C(=O)[C@@H](NC(=O)COCCOCCOCCOc2cc(F)c([C@@H]3c4[nH]c5ccccc5c4C[C@@H](C)N3CC(C)(C)F)c(F)c2)C(C)(C)C)cc1 [Example 106, (2S,4R)—N-[(1S)-2-amino-1-[4-(4-methylthiazol-5-yl)phenyl]ethyl]-1-[(2S)-2-[[2-[2-[2-[2-[3,5-difluoro-4-[(1R,3R)-2-(2-fluoro-2-methyl-propyl)-3-methyl-1,3,4,9-tetrahydropyrido[3,4-b]indol-1-yl]phenoxy]ethoxy]ethoxy]ethoxy]acetyl]amino]-3,3-dimethyl-butanoyl]-4-hydroxy-pyrrolidine-2-carboxamide]	•	0.9
Cc1ncsc1-c1ccc([C@@H](CN(C)C)NC(=O)[C@@H]2C[C@@H](O)CN2C(=O)[C@@H](NC(=O)COCCOCCOCCOc2cc(F)c([C@@H]3c4[nH]c5ccccc5c4C[C@@H](C)N3CC(C)(C)F)c(F)c2)C(C)(C)C)cc1 [Example 107, (2S,4R)-1-[(2S)-2-[[2-[2-[2-[2-[3,5-Difluoro-4-[(1R,3R)-2-(2-fluoro-2-methyl-propyl)-3-methyl-1,3,4,9-tetrahydropyrido[3,4-b]indol-1-yl]phenoxy]ethoxy]ethoxy]ethoxy]acetyl]amino]-3,3-dimethyl-butanoyl]-N-[(1S)-2-(dimethylamino)-1-[4-(4-methylthiazol-5-yl)phenyl]ethyl]-4-hydroxy-pyrrolidine-2-carboxamide]	••	1
Cc1ncsc1-c1ccc(CNC(=O)[C@@H]2C[C@@H](O)CN2C(=O)[C@@H](NC(=O)CCCCCOCCCCOc2cc(F)c([C@@H]3c4[nH]c5ccccc5c4C[C@@H](C)N3CC(C)(C)F)c(F)c2)C(C)(C)C)cc1 [Example 109, (2S,4R)-1-((S)-2-(6-(4-(3,5-difluoro-4-((1R,3R)-2-(2-fluoro-2-methylpropyl)-3-methyl-2,3,49-tetrahydro-1H-pyrido[3,4-b]indol-1-yl)phenoxy)butoxy)hexanamido)-3,3-dimethylbutanoyl)-4-hydroxy-N-(4-(4-methylthiazol-5-yl)benzyl)pyrrolidine-2-carboxamide]	••	1
